Reference: ChEMBL document CHEMBL1201862, “PubChem BioAssay data set” (2004)
The source made the active and inactive calls. Rule as the data show it: actives have a measured IC50 and inactives only a lower limit.

Assays:
Format in all cases: functional
[1] = target: T1, Sentrin-specific protease 7 (Homo sapiens, UniProt Q9BQF6);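 also: Luminescence-based dose-response confirmation of ultra-high-throughput screening hits, measuring inhibition of SENP7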
T1 sequence (Q9BQF6 whole entry): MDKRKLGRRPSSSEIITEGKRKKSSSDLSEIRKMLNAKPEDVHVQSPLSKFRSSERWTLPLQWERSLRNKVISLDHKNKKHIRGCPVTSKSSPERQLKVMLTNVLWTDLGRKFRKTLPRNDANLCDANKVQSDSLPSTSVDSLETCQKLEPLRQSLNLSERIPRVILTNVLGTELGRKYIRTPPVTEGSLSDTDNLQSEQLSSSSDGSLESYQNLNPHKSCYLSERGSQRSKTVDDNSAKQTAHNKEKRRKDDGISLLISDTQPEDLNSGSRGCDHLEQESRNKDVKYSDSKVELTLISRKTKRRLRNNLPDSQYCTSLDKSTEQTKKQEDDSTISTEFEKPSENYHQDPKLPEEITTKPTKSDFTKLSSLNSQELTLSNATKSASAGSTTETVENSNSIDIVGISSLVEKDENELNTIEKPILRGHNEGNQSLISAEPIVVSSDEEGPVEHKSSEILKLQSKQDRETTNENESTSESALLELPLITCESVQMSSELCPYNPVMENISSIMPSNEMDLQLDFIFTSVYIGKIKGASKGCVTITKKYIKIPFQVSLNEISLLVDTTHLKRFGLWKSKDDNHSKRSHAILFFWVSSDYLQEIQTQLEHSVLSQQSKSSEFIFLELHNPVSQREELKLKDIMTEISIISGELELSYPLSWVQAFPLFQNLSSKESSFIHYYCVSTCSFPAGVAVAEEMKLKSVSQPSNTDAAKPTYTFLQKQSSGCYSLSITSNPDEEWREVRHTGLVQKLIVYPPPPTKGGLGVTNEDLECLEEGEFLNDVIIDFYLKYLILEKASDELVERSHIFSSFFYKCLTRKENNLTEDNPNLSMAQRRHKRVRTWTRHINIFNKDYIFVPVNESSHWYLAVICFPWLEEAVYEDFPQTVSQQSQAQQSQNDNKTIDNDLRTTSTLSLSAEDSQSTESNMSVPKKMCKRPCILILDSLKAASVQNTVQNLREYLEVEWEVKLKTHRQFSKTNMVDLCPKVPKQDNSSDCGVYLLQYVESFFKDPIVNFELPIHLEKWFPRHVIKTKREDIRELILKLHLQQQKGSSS

[2] = target: T2, Sentrin-specific protease 6 (Homo sapiens, UniProt Q9GZR1);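 also: Luminescence-based dose-response confirmatory assay of SENP6 inhibition, following up an ultra-high-throughput screen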
T2 sequence (Q9GZR1 whole entry): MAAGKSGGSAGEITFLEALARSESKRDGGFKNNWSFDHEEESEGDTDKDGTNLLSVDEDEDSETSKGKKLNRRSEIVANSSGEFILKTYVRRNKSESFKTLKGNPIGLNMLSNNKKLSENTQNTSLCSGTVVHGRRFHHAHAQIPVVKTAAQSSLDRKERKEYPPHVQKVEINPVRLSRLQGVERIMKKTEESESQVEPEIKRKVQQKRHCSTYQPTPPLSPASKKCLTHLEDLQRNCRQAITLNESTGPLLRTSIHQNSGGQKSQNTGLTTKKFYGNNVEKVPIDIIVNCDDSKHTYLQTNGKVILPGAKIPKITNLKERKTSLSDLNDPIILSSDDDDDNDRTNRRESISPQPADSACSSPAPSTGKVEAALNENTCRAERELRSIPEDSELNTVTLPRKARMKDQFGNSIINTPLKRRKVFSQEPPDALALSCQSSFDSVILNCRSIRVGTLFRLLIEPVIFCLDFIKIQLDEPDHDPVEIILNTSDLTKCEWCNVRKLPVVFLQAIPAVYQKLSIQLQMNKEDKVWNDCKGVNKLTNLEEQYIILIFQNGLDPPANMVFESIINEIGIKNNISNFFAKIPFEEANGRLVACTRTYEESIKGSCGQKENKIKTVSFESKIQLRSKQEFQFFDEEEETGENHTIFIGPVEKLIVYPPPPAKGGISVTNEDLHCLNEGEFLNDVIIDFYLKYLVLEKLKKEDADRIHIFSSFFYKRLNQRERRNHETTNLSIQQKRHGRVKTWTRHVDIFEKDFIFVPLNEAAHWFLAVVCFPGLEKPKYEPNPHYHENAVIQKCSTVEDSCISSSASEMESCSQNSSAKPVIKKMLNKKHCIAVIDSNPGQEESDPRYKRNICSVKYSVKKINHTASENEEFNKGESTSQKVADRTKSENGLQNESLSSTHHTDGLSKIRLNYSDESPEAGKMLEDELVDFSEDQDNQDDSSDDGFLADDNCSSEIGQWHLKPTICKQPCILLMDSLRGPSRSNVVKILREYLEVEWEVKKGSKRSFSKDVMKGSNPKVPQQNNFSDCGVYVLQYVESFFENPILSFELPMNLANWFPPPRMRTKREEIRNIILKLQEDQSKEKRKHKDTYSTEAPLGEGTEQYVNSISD

Caspase-3 = target: T3, Caspase-3 (Homo sapiens, UniProt P42574);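 also: Dose-response selectivity test against caspase-3 for candidate inhibitors of sentrin-specific proteases (SENPs)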
T3 sequence (P42574 whole entry): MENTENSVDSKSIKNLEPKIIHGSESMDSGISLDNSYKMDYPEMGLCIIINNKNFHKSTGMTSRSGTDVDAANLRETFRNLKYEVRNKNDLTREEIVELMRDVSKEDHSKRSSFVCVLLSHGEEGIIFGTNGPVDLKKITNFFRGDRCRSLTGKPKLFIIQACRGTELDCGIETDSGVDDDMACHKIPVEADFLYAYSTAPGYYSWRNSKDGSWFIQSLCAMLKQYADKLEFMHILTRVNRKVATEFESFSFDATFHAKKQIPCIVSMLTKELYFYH

[3] = target: T4, Sentrin-specific protease 8 (Homo sapiens, UniProt Q96LD8);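 also: luminescence read-out of SENP8 inhibition, dose-response confirmation following an ultra-high-throughput screen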
T4 sequence (Q96LD8 whole entry): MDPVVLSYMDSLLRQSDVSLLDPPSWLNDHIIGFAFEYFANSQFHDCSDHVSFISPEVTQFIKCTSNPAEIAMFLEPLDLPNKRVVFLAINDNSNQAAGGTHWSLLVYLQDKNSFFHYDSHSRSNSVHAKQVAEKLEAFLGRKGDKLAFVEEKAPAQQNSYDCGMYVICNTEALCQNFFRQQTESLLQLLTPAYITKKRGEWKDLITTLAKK

Measured: IC50

O=[N+]([O-])c1ccc(O)c(C2=NNC(c3ccccc3F)C2)c1 (stereo not drawn)
active: [1] 41.6 µM | [2] 43.5 µM | Caspase-3 68.6 µM | [3] 54.5 µM

Cc1oc2c(c1C(=O)N1CCC(C)CC1)C(=O)c1ccccc1C2=O
active: [1] 40.6 µM | [2] 13.7 µM | Caspase-3 10.2 µM | [3] 23.6 µM
